Assay results from ChEMBL document CHEMBL3861978, “Dinoflagellate-Related Amphidinolides from the Brazilian Octocoral Stragulum bicolor” (J Nat Prod, 2016).

Assay: Cytotoxicity against human HCT116 cells measured after 72 hrs by MTT assay
Format: functional, cell-based
Conditions: HCT-116, 72 h

Structure (SMILES): C=C1/C=C(\C)[C@](C)(O)C[C@H](O)CC(=O)[C@H](O)[C@@H](O)[C@H](C)C[C@H](C)OC(=O)/C(C)=C/CC/C=C/C(O)C(O)C[C@H](C)C1 (some centres not stated)
- IC50: 9.8 µM

Structure (SMILES): C=C1/C=C(\C)[C@@H](C)[C@@H](O)CC(=O)[C@@H](C)CC(=O)C[C@H]2CC[C@@H](O2)[C@@H](/C=C/C=C(\C)[C@@H](O)C(=C)CCC)OC(=O)C[C@@H]2O[C@H](C[C@H]2C)[C@H](O)C1
- IC50: 10.3 µM
